Several values for one entry are separate records, joined by “and”; a condition that tells them apart may be missing. Equal entries are not always repeated.
Tested on: polychromatic cells (PCEs)
Experiment: PCE count in blood by flow cytometry
Assay type: in vivo, mouse
Conditions: MMS 100 μg/g body weight IP at 0 and 48 hours
Description: When two dyes are used for simultaneous micronucleus and PCE discrimination, the cell suspension is prepared as follows: The Hoechst 33258 working solution described above is prepared and is filtered through an 0.2 micron Acro-disk (Gilman Sciences). In addition, a propidium iodide (PI) working solution is prepared (5 mg PI/100 ml phosphate buffered saline (PBS)). A buffer-dye solution is then prepared by adding the PI solution (100 μl) and Hoechst 33258 working solution (25 μl) to PBS (867.5 μl). The resulting buffer-dye solution is then dispensed (992.5 μl) into samples tubes. A sample of fixed blood (15 μl) is then added to the corresponding tube. When blood from a malaria (P. berghei) infected mouse was fixed and stained by this procedure, the bivariate pattern shown in FIG. 1B resulted, in which a stronger red fluorescence signal was obtained. In this case, good resolution is achieved if BSA is omitted from the stained cell suspension. The pH of the stained solution is important for good fluorescence emission profiles and resolution of the different cell populations. With Hoechst 33258 and propidium iodide, good results can be obtained in the range from pH 6 to pH 8. Lower or higher pH levels cause a broadening of the fluorescence patterns which adversely affect the resolution of the PCes and micronucleated cells. Operationally,it is advisable to store the fixed samples and analyze freshly stained samples.
Although it is inappropriate to directly compare the number of MNs in the 0 hr and 96 hr samples because of this PCE change, it is possible to normalize the data to take into account said change. An increase in the number of PCEs will cause a decrease in the total number of MNs counted in the PCE window for a 96 hour sample. […]
Another staining embodiment of this invention involves the use of dual parameter data acquisition in conjunction with two dyes, Hoechst 33258 and propidium iodide so as to analyze both MNs and PCEs. […] Propidium iodide endows the PCEs with a strong red fluorescence signal which pulls them out of the RBC contour. […]

COS(C)(=O)=O [MMS, methyl methanesulfonate]
PCEs (96 hr) (Hoechst 33258 & propidium iodide): 17,684 PCEs per 500,000 cells and 15,408 PCEs per 500,000 cells and 13,095 PCEs per 500,000 cells and 14,356 PCEs per 500,000 cells | PCE Factor (K) (96 hr/0 hr) (PCEs 96 hr/PCEs 0 hr per 100,000 total cells): 2.49 and 1.36 and 2.07 and 2.22 and 2.12
